The record followed here is patent US9351974B2, “Substituted pteridinones for the treatment of cancer” (OSI Pharmaceuticals, LLC, priority 2011, dated 2016).

T1 sequence (P51812 whole entry): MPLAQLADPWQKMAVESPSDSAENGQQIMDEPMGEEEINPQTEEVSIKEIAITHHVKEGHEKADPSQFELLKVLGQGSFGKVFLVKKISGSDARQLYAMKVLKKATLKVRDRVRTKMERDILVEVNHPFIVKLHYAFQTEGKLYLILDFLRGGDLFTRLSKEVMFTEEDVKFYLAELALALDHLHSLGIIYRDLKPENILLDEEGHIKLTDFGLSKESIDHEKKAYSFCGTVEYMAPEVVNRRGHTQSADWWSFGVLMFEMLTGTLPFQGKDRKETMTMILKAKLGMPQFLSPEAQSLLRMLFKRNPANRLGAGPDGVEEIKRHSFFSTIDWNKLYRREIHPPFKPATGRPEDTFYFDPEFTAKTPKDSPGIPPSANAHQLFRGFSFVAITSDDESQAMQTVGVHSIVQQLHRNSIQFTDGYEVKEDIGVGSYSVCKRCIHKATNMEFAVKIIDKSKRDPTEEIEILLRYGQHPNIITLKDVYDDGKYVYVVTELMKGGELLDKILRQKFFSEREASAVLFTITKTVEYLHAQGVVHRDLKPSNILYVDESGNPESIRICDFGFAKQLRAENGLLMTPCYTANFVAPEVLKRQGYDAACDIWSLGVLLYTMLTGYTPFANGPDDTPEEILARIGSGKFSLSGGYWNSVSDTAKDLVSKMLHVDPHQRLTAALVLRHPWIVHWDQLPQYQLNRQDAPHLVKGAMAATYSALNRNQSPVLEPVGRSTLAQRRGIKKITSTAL

The assay addresses T1, His-tagged full-length RSK2 (RPS6KA3) (Homo sapiens, UniProt P51812).
T1 construct: His-tagged full-length RSK2 (RPS6KA3, Invitrogen PV3323); His; purchased Invitrogen PV3323
Nature of the assay: RSK2 Omnia Assay for compound IC50 determination. The assay is classed as biochemical. The following applies: ATP 15 μM, n=2, read-out: Mean RSK2 Biochem IC50. The method, boiled down:
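Continuous fluorescence assay (ex 360/em 485 nm) of SOX-peptide (Omnia ST Peptide 6, 5 μM) phosphorylation with ATP 15 μM (Km 16.3 μM). Enzyme was […], in pH 7.5 HEPES/MgCl2 buffer with 1% DMSO. IC50 came from 11-point threefold dilutions ([…]) by four-parameter fit of initial slopes, in duplicate; Ki by Cheng-Prusoff assuming competitive inhibition.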
As to `C[C@@H]1C(=O)N(c2cccc(C#N)c2)c2cnc(Nc3ccc4[nH]ncc4c3)nc2N1CC1CC(F)(F)C1` [Example 83, 3-[(7R)-8-[(3,3-difluorocyclobutyl)methyl]-2-(1H-indazol-5-ylamino)-7-methyl-6-oxo-7,8-dihydropteridin-5(6H)-yl]benzonitrile], the 50% inhibitory concentration (IC50) was ≤ 100 nM. Under `N#Cc1cccc(N2C(=O)[C@H]3CCCN3c3nc(Nc4cc(F)c5[nH]ncc5c4)ncc32)c1` [Example 84, 3-[(6aR)-2-[(7-fluoro-1H-indazol-5-yl)amino]-6-oxo-6a,7,8,9-tetrahydropyrrolo[2,1-h]pteridin-5(6H)-yl]benzonitrile] stands 100 to 1000 nM. Under `COc1ccc(N2C(=O)[C@@H](C)N(CCC(C)C)c3nc(Nc4cc(F)c5[nH]ncc5c4)ncc32)cc1OC` [Example 85, (7R)-5-(3,4-dimethoxyphenyl)-2-[(7-fluoro-1H-indazol-5-yl)amino]-7-methyl-8-(3-methylbutyl)-7,8-dihydropteridin-6(5H)-one] stands ≤ 100 nM; under `CC(C)CCN1c2nc(Nc3cc(F)c4[nH]ncc4c3)ncc2N(c2cccc(C#N)c2)C(=O)[C@H]1C` [Example 86, 3-[(7R)-2-[(7-fluoro-1H-indazol-5-yl)amino]-7-methyl-8-(3-methylbutyl)-6-oxo-7,8-dihydropteridin-5(6H)-yl]benzonitrile], ≤ 100 nM; under `CC(C)CCN1c2nc(Nc3cc(F)c4[nH]ncc4c3)ncc2N(c2cccnc2)C(=O)[C@H]1C` [Example 87, (7R)-2-[(7-fluoro-1H-indazol-5-yl)amino]-7-methyl-8-(3-methylbutyl)-5-(pyridin-3-yl)-7,8-dihydropteridin-6(5H)-one], ≤ 100 nM.

Turning to `COc1ccc(N2C(=O)[C@@H](C)N(CCC(C)C)c3nc(Nc4cc(F)c5[nH]c(=O)oc5c4)ncc32)cc1OC` [Example 88, (7R)-5-(3,4-dimethoxyphenyl)-2-[(4-fluoro-2-oxo-2,3-dihydro-1,3-benzoxazol-6-yl)amino]-7-methyl-8-(3-methylbutyl)-7,8-dihydropteridin-6(5H)-one], the IC50 is ≤ 100 nM.

`CC(C)CCN1c2nc(Nc3cc(F)c(O)c(F)c3)ncc2N(c2cccc(C#N)c2)C(=O)[C@H]1C` [Example 89, 3-[(7R)-2-[(3,5-difluoro-4-hydroxyphenyl)amino]-7-methyl-8-(3-methylbutyl)-6-oxo-7,8-dihydropteridin-5(6H)-yl]benzonitrile]: the IC50 is ≤ 100 nM. `CC(C)CCN1c2nc(Nc3cc(F)c4[nH]c(=O)oc4c3)ncc2N(c2cccc(C#N)c2)C(=O)[C@H]1C` [Example 90, 3-[(7R)-2-[(4-fluoro-2-oxo-2,3-dihydro-1,3-benzoxazol-6-yl)amino]-7-methyl-8-(3-methylbutyl)-6-oxo-7,8-dihydropteridin-5(6H)-yl]benzonitrile]: the IC50 is ≤ 100 nM. The same measure for `COc1ccc(N2C(=O)[C@@H](C)N(CCC(C)C)c3nc(Nc4cc(F)c5[nH]ncc5c4)ncc32)cc1C#N` [Example 91, 5-[(7R)-2-[(7-fluoro-1H-indazol-5-yl)amino]-7-methyl-8-(3-methylbutyl)-6-oxo-7,8-dihydropteridin-5(6H)-yl]-2-methoxybenzonitrile]: ≤ 100 nM; for `CCOc1ccc(N2C(=O)[C@@H](C)N(CCC(C)C)c3nc(Nc4cc(F)c5[nH]ncc5c4)ncc32)cc1C#N` [Example 92, 2-ethoxy-5-[(7R)-2-[(7-fluoro-1H-indazol-5-yl)amino]-7-methyl-8-(3-methylbutyl)-6-oxo-7,8-dihydropteridin-5(6H)-yl]benzonitrile]: ≤ 100 nM; for `CC(C)CCN1c2nc(Nc3cc(F)c4[nH]ncc4c3)ncc2N(c2ccc(OC(C)C)c(C#N)c2)C(=O)[C@H]1C` [Example 93, 5-[(7R)-2-[(7-fluoro-1H-indazol-5-yl)amino]-7-methyl-8-(3-methylbutyl)-6-oxo-7,8-dihydropteridin-5(6H)-yl]-2-(propan-2-yloxy)benzonitrile]: ≤ 100 nM. `CC(C)N1c2nc(Nc3ccc4c(c3)CC(=O)N4)ncc2N(c2ccccc2)C(=O)C1C` (stereo not drawn) [Example 94, 7-methyl-2-[(2-oxo-2,3-dihydro-1H-indol-5-yl)amino]-5-phenyl-8-(propan-2-yl)-7,8-dihydropteridin-6(5H)-one]: the half-inhibitory concentration (IC50) fell in the range of 100 to 1000 nM.

Take `CC1C(=O)N(c2ccccc2)c2cnc(Nc3ccc4[nH]ncc4c3)nc2N1c1ccccc1` (stereo not drawn) [Example 178, 2-(1H-indazol-5-ylamino)-7-methyl-5,8-diphenyl-7,8-dihydropteridin-6(5H)-one]: the concentration for half-maximal inhibition (IC50) was ≤ 100 nM. The same measure for `C[C@@H]1C(=O)N(c2cccc(C#N)c2)c2cnc(Nc3ccc4[nH]ncc4c3)nc2N1C1CCC(C)(C)CC1` [Example 207, 3-[(7R)-8-(4,4-dimethylcyclohexyl)-2-(1H-indazol-5-ylamino)-7-methyl-6-oxo-7,8-dihydropteridin-5(6H)-yl]benzonitrile]: ≤ 100 nM; for `C[C@@H]1C(=O)N(c2cccnc2)c2cnc(Nc3cc(F)c4[nH]ncc4c3)nc2N1C1CCC(C)(C)CC1` [Example 208, (7R)-8-(4,4-dimethylcyclohexyl)-2-[(7-fluoro-1H-indazol-5-yl)amino]-7-methyl-5-(pyridin-3-yl)-7,8-dihydropteridin-6(5H)-one]: ≤ 100 nM; for `C[C@@H]1C(=O)N(c2cccc(C#N)c2)c2cnc(Nc3cc(F)c4[nH]ncc4c3)nc2N1C1CCC(C)(C)CC1` [Example 209, 3-[(7R)-8-(4,4-dimethylcyclohexyl)-2-[(7-fluoro-1H-indazol-5-yl)amino]-7-methyl-6-oxo-7,8-dihydropteridin-5(6H)-yl]benzonitrile]: ≤ 100 nM. The same measure for `COc1ccc(N2C(=O)[C@@H](C)N(C3CCC(C)(C)CC3)c3nc(Nc4cc(F)c5[nH]ncc5c4)ncc32)cc1OC` [Example 210, (7R)-5-(3,4-dimethoxyphenyl)-8-(4,4-dimethylcyclohexyl)-2-[(7-fluoro-1H-indazol-5-yl)amino]-7-methyl-7,8-dihydropteridin-6(5H)-one]: ≤ 100 nM; for `C[C@@H]1C(=O)N(c2cccc(F)c2)c2cnc(Nc3cc(F)c4[nH]ncc4c3)nc2N1C1CCC(C)(C)CC1` [Example 211, (7R)-8-(4,4-dimethylcyclohexyl)-2-[(7-fluoro-1H-indazol-5-yl)amino]-5-(3-fluorophenyl)-7-methyl-7,8-dihydropteridin-6(5H)-one]: ≤ 100 nM; for `C[C@@H]1C(=O)N(c2ccc(N3CCCC3)c(C#N)c2)c2cnc(Nc3cc(F)c4[nH]ncc4c3)nc2N1C1CCC(C)(C)CC1` [Example 212, 5-[(7R)-8-(4,4-dimethylcyclohexyl)-2-[(7-fluoro-1H-indazol-5-yl)amino]-7-methyl-6-oxo-7,8-dihydropteridin-5(6H)-yl]-2-(pyrrolidin-1-yl)benzonitrile]: ≤ 100 nM. The same measure for `C[C@@H]1C(=O)N(c2ccc(N3CCOCC3)nc2)c2cnc(Nc3cc(F)c4[nH]ncc4c3)nc2N1C1CCC(C)(C)CC1` [Example 213, (7R)-8-(4,4-dimethylcyclohexyl)-2-[(7-fluoro-1H-indazol-5-yl)amino]-7-methyl-5-[6-(morpholin-4-yl)pyridin-3-yl]-7,8-dihydropteridin-6(5H)-one]: ≤ 100 nM; for `C[C@@H]1C(=O)N(c2ccc(N3CCCC3)nc2)c2cnc(Nc3cc(F)c4[nH]ncc4c3)nc2N1C1CCC(C)(C)CC1` [Example 214, (7R)-8-(4,4-dimethylcyclohexyl)-2-[(7-fluoro-1H-indazol-5-yl)amino]-7-methyl-5-[6-(pyrrolidin-1-yl)pyridin-3-yl]-7,8-dihydropteridin-6(5H)-one]: ≤ 100 nM.

For `C[C@@H]1C(=O)N(c2ccc(N3CCCCC3)nc2)c2cnc(Nc3cc(F)c4[nH]ncc4c3)nc2N1C1CCC(C)(C)CC1` [Example 215, (7R)-8-(4,4-dimethylcyclohexyl)-2-[(7-fluoro-1H-indazol-5-yl)amino]-7-methyl-5-[6-(piperidin-1-yl)pyridin-3-yl]-7,8-dihydropteridin-6(5H)-one], the 50% inhibitory concentration (IC50) is ≤ 100 nM.

On to `C[C@@H]1C(=O)N(c2cccc(C#N)c2)c2cnc(Nc3ccc4[nH]ncc4c3F)nc2N1C1CCCC1` [Example 216, 3-[(7R)-8-cyclopentyl-2-[(4-fluoro-1H-indazol-5-yl)amino]-7-methyl-6-oxo-7,8-dihydropteridin-5(6H)-yl]benzonitrile], for which the IC50 was ≤ 100 nM. Under `CC[C@@H]1C(=O)N(c2cccc(C#N)c2)c2cnc(Nc3cc(F)c4[nH]ncc4c3)nc2N1C1CCCC1` [Example 217, 3-[(7R)-8-cyclopentyl-7-ethyl-2-[(7-fluoro-1H-indazol-5-yl)amino]-6-oxo-7,8-dihydropteridin-5(6H)-yl]benzonitrile] stands ≤ 100 nM. The same measure for `N#Cc1cccc(N2C(=O)[C@@H](CO)N(C3CCCC3)c3nc(Nc4cc(F)c5[nH]ncc5c4)ncc32)c1` [Example 218, 3-[(7R)-8-cyclopentyl-2-[(7-fluoro-1H-indazol-5-yl)amino]-7-(hydroxymethyl)-6-oxo-7,8-dihydropteridin-5(6H)-yl]benzonitrile]: ≤ 100 nM; for `C[C@@H]1C(=O)N(c2cccc(C#N)c2)c2cnc(Nc3cc(F)c4[nH]ncc4c3)nc2N1C1CCCC1` [Example 219, 3-[(7R)-8-cyclopentyl-2-[(7-fluoro-1H-indazol-5-yl)amino]-7-methyl-6-oxo-7,8-dihydropteridin-5(6H)-yl]benzonitrile]: ≤ 100 nM. For the molecule `N#Cc1cccc(N2C(=O)[C@@H](CO)N(C3CCCC3)c3nc(Nc4ccc5[nH]ncc5c4)ncc32)c1` [Example 220, 3-[(7R)-8-cyclopentyl-7-(hydroxymethyl)-2-(1H-indazol-5-ylamino)-6-oxo-7,8-dihydropteridin-5(6H)-yl]benzonitrile], the IC50 is ≤ 100 nM.
